The target of one series is bL (Enterobacter cloacae, UniProt P05364). The series is classed as biochemical. The settings on record: 3-4 independently run experiments.
Series [1] in a line: Toxicity in nude mice (maximum tolerated dose), single intravenous injection.
The conditions of series [2]: in mice; cited from earlier work.
In series [3] the test system is H2981 human lung adenocarcinoma cell line. Description: In vitro cytotoxicity assay, incorporation of [^3H] thymidine into DNA. Type of series: cell-based. The settings on record: H2981 cells, non-conjugate treated, doxorubicin instead of PEG-AC-Dox (Figure 3).

Sequence of bL (P05364 21-381): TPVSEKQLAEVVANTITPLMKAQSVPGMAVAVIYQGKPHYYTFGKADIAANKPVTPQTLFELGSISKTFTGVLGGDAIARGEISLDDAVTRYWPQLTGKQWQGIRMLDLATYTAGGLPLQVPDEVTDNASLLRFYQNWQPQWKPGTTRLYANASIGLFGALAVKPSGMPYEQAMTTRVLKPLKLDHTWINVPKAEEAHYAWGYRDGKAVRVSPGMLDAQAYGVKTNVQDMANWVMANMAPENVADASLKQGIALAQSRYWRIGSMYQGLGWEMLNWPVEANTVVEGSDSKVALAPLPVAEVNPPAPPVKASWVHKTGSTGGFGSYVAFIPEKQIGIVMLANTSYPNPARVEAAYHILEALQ

For `COc1cccc2c1C(=O)c1c(O)c3c(c(O)c1C2=O)C[C@@](O)(C(=O)CO)C[C@@H]3O[C@H]1C[C@H](NC(=O)OCC2=C(C(=O)O)N3C(=O)[C@@H](NC(=O)Cc4ccccc4)[C@H]3SC2)[C@H](O)[C@H](C)O1` [C-Dox, 7-phenylacetylcephalosporin doxorubicin], the Vmax at bL (hydrolysis by bL in phosphate buffered saline containing bovine serum albumin) came out at 400 ± 96 µmol/mim /mg. On bL (hydrolysis by bL), the Km amounted to 46 ± 6 µM and the kcat was found to be 280 ± 67 s⁻¹.

The molecule `COc1cccc2c1C(=O)c1c(O)c3c(c(O)c1C2=O)C[C@@](O)(C(=O)CO)C[C@@H]3O[C@H]1C[C@H](N)[C@H](O)[C@H](C)O1` [doxorubicin] returned a maximum tolerated dose in series [1] (nude mice, single intravenous injection, dose giving < 20% weight loss, no deaths) of 13.8 µmol/kg body weight. The molecule further yielded an MTD in series [1] (nude, mouse, in vivo, iv) of 8 mg/kg. The initial half life in series [2] was 2 min. Moreover, the IC50 in series [3] fell in the range of 100 to 200 nM.

In general, Km refers to the concentration of substrate that gives half-maximal velocity. What is called kcat is the maximal rate divided by the concentration of active sites. What is called MTD is the largest dose that counted as tolerated. The low end stands for poorer tolerability, the high end for better tolerability. As a reminder, the IC50 is the concentration at which inhibition is half-maximal. Low readings indicate inhibition by little substance, high ones a need for much substance.
